In patent publication US20230057359A1, “NOVEL USE OF STEVIOL” (SUNTORY HOLDINGS LIMITED, priority 2019, published 2023):

Tests used:
Assay type in all cases: cell-based
HepG2 cells [1] = experiment: TG accumulation test in hepatocytes (Adipogenesis Assay Kit, oleic acid); conditions: 2 mM metformin, 0.2 mM oleic acid, 24 hours, DMSO=100%
Experimental: HepG2 cells were precultured using the growth medium in the same manner as in Example 5. The cells were detached using 0.25% trypsin-EDTA, seeded at 30,000 cells/100 μL/well to a 96-well plate using the growth medium, and cultured overnight in a CO2 incubator. On the next day, the medium was replaced with 100 μL of a test medium (DMEM (high glucose) supplemented with 0.2 mM oleic acid (Cat. No. 03008, Sigma-Aldrich), 10% FBS and 1% penicillin-streptomycin) supplemented with varying concentrations of steviol (12.5, 25, 50, 100 or 200 μg/mL, dissolved in 0.1% DMSO (final concentration)). The cells were cultured for 24 hours in a CO2 incubator. A test medium supplemented with 2 mM metformin (Cat. No. M2009, Tokyo Chemical Industry Co., Ltd.) was used as a positive control (Metformin), and a vehicle control composed of a test medium supplemented with 0.1% DMSO (final concentration) was used as a negative control (DMSO). Cells cultured in a test medium containing no oleic acid was used as an untreated control (Untreated). The cells thus cultured were subjected to oil red staining in the same manner as in Example 3, followed by photographing and calculation of a relative fat accumulation level. An intracellular triglyceride (TG) level in cells separately cultured under the same conditions as in the cells employed in the oil red staining was quantified using Adipogenesis Assay Kit (BioVision Inc.) according to the manufacturer's protocol. Absorbance (570 nm) was measured using a plate reader (VARIOSKAN FLASH, Thermo Fisher Scientific Inc.), and a relative TG level was calculated. Significant difference of untreated group vs fat accumulation induction group (negative control group) was tested (two-tailed) by the Student's t test as to the relative fat accumulation level and the relative TG level, and P<0.05 was regarded as having significant difference. Also, significant difference of negative control group vs steviol addition group/positive control group was tested (two-tailed) by the Dunnett test, and P<0.05 was regarded as having significant difference. The results of the fat accumulation test are shown in Table 6 and FIG. 6, and the results of the TG accumulation test are shown in Table 7 and FIG. 7.

HepG2 cells [2] = experiment: Fat accumulation test in hepatocytes (oil red staining, oleic acid); conditions: 2 mM metformin, 0.2 mM oleic acid, 24 hours, DMSO=100%
Experimental: Normal human subcutaneous preadipocytes were precultured using the growth medium in the same manner as in Example 1. The cells were detached using 0.25% trypsin-EDTA, seeded at 10,000 cells/100 μL/well to a 96-well plate using a growth medium, and cultured overnight in a CO2 incubator. On the next day, the medium was replaced with 100 μL of a differentiation medium supplemented with varying concentrations of steviol (12.5, 25, 50, 100 or 200 μg/mL, dissolved in 0.1% DMSO (final concentration)). The cells were cultured for 10 days in a CO2 incubator to induce their differentiation into adipocytes. On the fourth and seventh days after the differentiation induction, the medium was replaced with a fresh medium (100 μL) having the same composition as above. A differentiation medium supplemented with 25 mM LiCl (Cat. No. SML0559, Sigma-Aldrich Co., LLC) was used as a positive control, and a differentiation medium supplemented with 0.1% DMSO (final concentration) was used as a negative control. Cells cultured in a growth medium were used as an untreated control (Untreated). The cells thus cultured were subjected to oil red staining. Specifically, the cells were washed twice with 100 μL of DPBS (Cat. No. 14190250, Thermo Fisher Scientific Inc.). Then, the cells were fixed (room temperature, 10 min) in 100 μL of a 10% formalin solution (Cat. No. 061-00416, FUJIFILM Wako Pure Chemical Corp.). The cells were washed twice with 100 μL of DPBS, then incubated for 1 minute in 100 μL of 60% 2-propanol (Cat. No. 166-04836, FUJIFILM Wako Pure Chemical Corp.) that replaced the medium, and stained for 15 minutes in 100 μL of an oil red staining solution (Cat. No. 00625, Sigma-Aldrich Co., LLC) that replaced the 2-propanol solution. The cells were washed once with 100 μL of 60% 2-propanol and washed twice with 100 μL of DPBS. Then, cell images were taken in 100 μL of DPBS. After subsequent replacement with 120 μL of 100% 2-propanol, oil red was extracted by incubation for 5 minutes, and 100 μL of the extracts was transferred to each well of a fresh 96-well plate. Absorbance (520 nm) was measured using a plate reader (VARIOSKAN FLASH, Thermo Fisher Scientific Inc.), and a relative fat accumulation level was calculated. Significant difference of differentiation non-induced group vs differentiation induced group (negative control group) was tested (two-tailed), and P<0.05 was regarded as having significant difference. Also, significant difference of negative control group vs steviol addition group/positive control group was tested (two-tailed) by the Dunnett test, and P<0.05 was regarded as having significant difference. […] HepG2 cells were precultured using the growth medium in the same manner as in Example 5. The cells were detached using 0.25% trypsin-EDTA, seeded at 30,000 cells/100 μL/well to a 96-well plate using the growth medium, and cultured overnight in a CO2 incubator. On the next day, the medium was replaced with 100 μL of a test medium (DMEM (high glucose) supplemented with 0.2 mM oleic acid (Cat. No. 03008, Sigma-Aldrich), 10% FBS and 1% penicillin-streptomycin) supplemented with varying concentrations of steviol (12.5, 25, 50, 100 or 200 μg/mL, dissolved in 0.1% DMSO (final concentration)). The cells were cultured for 24 hours in a CO2 incubator. A test medium supplemented with 2 mM metformin (Cat. No. M2009, Tokyo Chemical Industry Co., Ltd.) was used as a positive control (Metformin), and a vehicle control composed of a test medium supplemented with 0.1% DMSO (final concentration) was used as a negative control (DMSO). Cells cultured in a test medium containing no oleic acid was used as an untreated control (Untreated). The cells thus cultured were subjected to oil red staining in the same manner as in Example 3, followed by photographing and calculation of a relative fat accumulation level. […]

[3] = system: adipocytes differentiated from normal human subcutaneous preadipocytes; experiment: Sugar uptake test in adipocytes (intracellular 2DG6P, Glucose Uptake-Glo); conditions: 100 μM acadesine (AICAR), 4 hours, No addition=100%
Experimental: Normal human subcutaneous preadipocytes were precultured using the growth medium in the same manner as in Example 1. The cells were detached using 0.25% trypsin-EDTA, seeded at 10,000 cells/100 μL/well to a 96-well plate using the growth medium, and cultured overnight in a CO2 incubator. On the next day, the medium was replaced with the differentiation medium (100 μL). The cells were cultured for 10 days in a CO2 incubator to induce their differentiation into adipocytes. On the fourth and seventh days after the differentiation induction, the medium was replaced with a fresh differentiation medium (100 μL). Next, the medium was replaced with 100 μLL of a serum-free medium (PBM-2 medium supplemented with 2 mM L-glutamine, 50 μg/mL gentamycin, and 37 ng/mL amphotericin-B, Cat. No. PT-8002, Lonza Group AG), and the cells were cultured for 18 hours in a CO2 incubator. Subsequently, the medium was replaced with 100 μL of a glucose-free serum-free medium (DMEM, no glucose, Cat. No. 11966025, Thermo Fisher Scientific Inc.) supplemented with varying concentrations of steviol (10, 30 or 100 μg/mL, dissolved in 0.1% DMSO (final concentration)), and the cells were cultured for 4 hours in a CO2 incubator. A glucose-free serum-free medium supplemented with 100 μM acadesine (AICAR, Cat. No. A9978, Sigma-Aldrich Co., LLC) was used as a positive control, and a vehicle control composed of a glucose-free serum-free medium supplemented with 0.1% DMSO (final concentration) and a no-addition control composed of only a glucose-free serum-free medium were used as negative controls. After culture, intracellular 2-deoxyglucose-6-phosphate (2DG6P, 2-deoxyglucose (2DG) phosphorylation product) level was measured by the following procedures using Glucose Uptake-Glo Assay kit (Cat. No. J1341, Promega Corp.). The medium of each well was replaced with a DPBS solution (50 μL) supplemented with 1 mM 2DG. After incubation at room temperature for 10 minutes, a stop buffer (25 μL), a neutralization buffer (25 μL), and a 2DG6P detection reagent (100 μL) were added thereto. After incubation at room temperature for 60 minutes, luminescence intensity was measured using a plate reader (VARIOSKAN FLASH, Thermo Fisher Scientific Inc.), and relative luminescence intensity was regarded as a relative intracellular 2DG6P level. Significant difference among the test groups to be compared (no-addition group vs positive control group, vehicle control group vs steviol addition group) was tested by the Student's t test. The two-tailed test was conducted, and P<0.05 was regarded as having significant difference.

[4] = system: adipocytes differentiated from normal human subcutaneous preadipocytes; experiment: Lipolysis test in adipocytes (free glycerol in culture supernatant); conditions: 10 μM isoproterenol, 24 hours, No addition=100%
Experimental: Normal human subcutaneous preadipocytes were precultured using the growth medium in the same manner as in Example 1. The cells were detached using 0.25% trypsin-EDTA, seeded at 10,000 cells/100 μL/well to a 96-well plate using the growth medium, and cultured overnight in a CO2 incubator. On the next day, the medium was replaced with the differentiation medium (100 μL), and the cells were cultured for 10 days in a CO2 incubator to induce their differentiation into adipocytes. On the fourth and seventh days after the differentiation induction, the medium was replaced with a fresh differentiation medium (100 μL). Next, the medium was replaced with a differentiation medium supplemented with varying concentrations of steviol (10, 30 or 100 μg/mL, dissolved in 0.1% DMSO (final concentration)), and the cells were cultured for 24 hours in a CO2 incubator. Then, a free glycerol level in a culture supernatant was measured using Adipolysis Assay Kit (Cat. No. 10009381, Cayman Chemical Co.) according to the manufacturer's protocol. For the measurement, absorbance (540 nm) was measured using a plate reader (VARIOSKAN FLASH, Thermo Fisher Scientific Inc.), and a relative free glycerol concentration was calculated. A differentiation medium supplemented with 10 μM isoproterenol (ISP) was used as a positive control, and a vehicle control (DMSO) composed of a differentiation medium supplemented with 0.1% DMSO (final concentration) and a no-addition control composed of only the differentiation medium were used as negative controls. Significant difference among the test groups to be compared (no-addition group vs positive control group, vehicle control group vs steviol addition group) was tested by the Student's t test. The two-tailed test was conducted, and P<0.05 was regarded as having significant difference.

[5] = system: normal human subcutaneous preadipocytes differentiated into adipocytes; experiment: Fat accumulation test in adipocytes (oil red staining); conditions: 25 mM LiCl, 10 days, DMSO=100%
Experimental: Normal human subcutaneous preadipocytes were precultured using the growth medium in the same manner as in Example 1. The cells were detached using 0.25% trypsin-EDTA, seeded at 10,000 cells/100 μL/well to a 96-well plate using a growth medium, and cultured overnight in a CO2 incubator. On the next day, the medium was replaced with 100 μL of a differentiation medium supplemented with varying concentrations of steviol (12.5, 25, 50, 100 or 200 μg/mL, dissolved in 0.1% DMSO (final concentration)). The cells were cultured for 10 days in a CO2 incubator to induce their differentiation into adipocytes. On the fourth and seventh days after the differentiation induction, the medium was replaced with a fresh medium (100 μL) having the same composition as above. A differentiation medium supplemented with 25 mM LiCl (Cat. No. SML0559, Sigma-Aldrich Co., LLC) was used as a positive control, and a differentiation medium supplemented with 0.1% DMSO (final concentration) was used as a negative control. Cells cultured in a growth medium were used as an untreated control (Untreated). The cells thus cultured were subjected to oil red staining. Specifically, the cells were washed twice with 100 μL of DPBS (Cat. No. 14190250, Thermo Fisher Scientific Inc.). Then, the cells were fixed (room temperature, 10 min) in 100 μL of a 10% formalin solution (Cat. No. 061-00416, FUJIFILM Wako Pure Chemical Corp.). The cells were washed twice with 100 μL of DPBS, then incubated for 1 minute in 100 μL of 60% 2-propanol (Cat. No. 166-04836, FUJIFILM Wako Pure Chemical Corp.) that replaced the medium, and stained for 15 minutes in 100 μL of an oil red staining solution (Cat. No. 00625, Sigma-Aldrich Co., LLC) that replaced the 2-propanol solution. The cells were washed once with 100 μL of 60% 2-propanol and washed twice with 100 μL of DPBS. Then, cell images were taken in 100 μL of DPBS. After subsequent replacement with 120 μL of 100% 2-propanol, oil red was extracted by incubation for 5 minutes, and 100 μL of the extracts was transferred to each well of a fresh 96-well plate. Absorbance (520 nm) was measured using a plate reader (VARIOSKAN FLASH, Thermo Fisher Scientific Inc.), and a relative fat accumulation level was calculated. Significant difference of differentiation non-induced group vs differentiation induced group (negative control group) was tested (two-tailed), and P<0.05 was regarded as having significant difference. Also, significant difference of negative control group vs steviol addition group/positive control group was tested (two-tailed) by the Dunnett test, and P<0.05 was regarded as having significant difference.

CN(C)C(=N)N=C(N)N [Metformin, metformin, reference compound]
Relative TG level (%) (HepG2 cells [1]): 76.0%
Relative fat accumulation level (%) (HepG2 cells [2]): 79.4%

NC(=O)c1ncn([C@@H]2O[C@H](CO)[C@@H](O)[C@H]2O)c1N [AICAR, acadesine, reference compound]
Relative luminescence intensity (%) (relative intracellular 2DG6P level) [3]: 194.9%

CC(C)NCC(O)c1ccc(O)c(O)c1 (centres unmarked) [ISP, isoproterenol, reference compound]
Relative lipolysis level (%) [4]: 184.4%

[Cl-].[Li+] [LiCl, reference compound]
Relative fat accumulation level (%) [5]: 56.3%
